Ki data for 3 compounds are collected here from ChEMBL document CHEMBL1255512, “Pyrazolo[1,5-a]pyrimidine acetamides: 4-Phenyl alkyl ether derivatives as potent ligands for the 18 kDa translocator protein (TSPO)” (Bioorg Med Chem Lett, 2010).

This experiment is described as follows: Displacement of [3H]Ro151788 from CBR in rat […]. The class given is tissue-based. A general note: Loss of bound radioactivity is the signal in a displacement assay; it reports binding, not function.
In the case of `CCC(C)N(C)C(=O)c1cc2ccccc2c(-c2ccccc2Cl)n1` (stereo not drawn) [PK-11195], the inhibitory constant (Ki) – broadly, the dissociation constant of the complex between target and ligand, obtained from inhibition or displacement – was above 10 µM.
For `CCN(CC)C(=O)Cc1c(-c2ccc(OC)cc2)nn2c(C)cc(C)nc12` the value was above 10 µM; for `CCN(CC)C(=O)Cc1c(-c2ccc(OCCF)cc2)nn2c(C)cc(C)nc12` [DPA-714], above 10 µM.
